Measurements published in patent publication US5147868A, “Thienamycin renal peptidase inhibitors” (Merck & Co., Inc., priority 1992, dated 1992).

How the values were obtained:
[1] = molecular target: T1, dipeptidase (E.C.3.4.13.11), pig renal enzyme (Sus scrofa, UniProt P22412); assay: in vitro inhibition of hydrolysis of glycyldehydrophenylalanine (GDP) by solubilized renal dipeptidase; assay type: biochemical, pig (hog kidneys)
T1 construct: solubilized preparation of dipeptidase isolated from hog kidneys; from tissue; host or cells: hog kidney
T1 sequence (P22412 17-409): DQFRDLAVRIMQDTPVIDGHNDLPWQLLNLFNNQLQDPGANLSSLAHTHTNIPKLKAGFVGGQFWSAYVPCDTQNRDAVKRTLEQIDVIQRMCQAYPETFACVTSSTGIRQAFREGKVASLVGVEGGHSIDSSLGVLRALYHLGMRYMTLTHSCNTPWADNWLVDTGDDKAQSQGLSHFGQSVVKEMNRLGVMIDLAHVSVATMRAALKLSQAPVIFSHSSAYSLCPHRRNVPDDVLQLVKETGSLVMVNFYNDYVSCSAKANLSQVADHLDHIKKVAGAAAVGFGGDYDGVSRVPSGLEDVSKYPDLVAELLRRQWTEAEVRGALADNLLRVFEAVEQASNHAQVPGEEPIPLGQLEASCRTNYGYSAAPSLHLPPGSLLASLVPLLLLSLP
Experimental: This measured the ability of compounds to inhibit hydrolysis of glycyldehydrophenylalanine (GDP) by a solubilized preparation of dipeptidase isolated from hog kidneys. The procedure is as follows: to a 1 ml. system containing 50 mM "MOPS" (3-(N-morpholino)propanesulfonic acid) buffer, pH 7.1, is added 5 μg of lyophilized enzyme, and the test compound at a final concentration of 0.1 mM. After a five minute incubation at 37° C., GDP is added to a final concentration of 0.05 mM. Incubation is continued for 10 minutes, at 37° C. and hydrolysis of GDP is measured by the change in optical density with time at 275 nm. Inhibition of the enzyme is gauged by comparison to a standard run containing no inhibitor and is expressed as the inhibitor binding constant, Ki.
A 1 ml. system of 50 mM "MOPS" buffer, pH 7.1, is used. To this is added 5 μg of the pig renal enzyme and an amount of the test compound to bring its final concentration to 0.1 mM. After a five minute incubation at 37° C., an amount of GDP is added to bring its final concentration to 0.05 mM. The system is again incubated for 10 minutes, at 37° C. Hydrolysis of GDP is measured by its change in optical density with time at 275 nm. Inhibition of the enzyme is gauged by comparison to a standard run containing no inhibitor and is presented as percent inhibition.

renal dipeptidase = molecular target: T2, renal dipeptidase (Sus scrofa, UniProt P22412); assay: affinity and hydrolysis of substrates by renal dipeptidase; assay type: biochemical, pig (hog kidneys); settings: compared with thienamycin
T2 construct: disulfide-linked homodimer
T2 sequence (P22412 17-384): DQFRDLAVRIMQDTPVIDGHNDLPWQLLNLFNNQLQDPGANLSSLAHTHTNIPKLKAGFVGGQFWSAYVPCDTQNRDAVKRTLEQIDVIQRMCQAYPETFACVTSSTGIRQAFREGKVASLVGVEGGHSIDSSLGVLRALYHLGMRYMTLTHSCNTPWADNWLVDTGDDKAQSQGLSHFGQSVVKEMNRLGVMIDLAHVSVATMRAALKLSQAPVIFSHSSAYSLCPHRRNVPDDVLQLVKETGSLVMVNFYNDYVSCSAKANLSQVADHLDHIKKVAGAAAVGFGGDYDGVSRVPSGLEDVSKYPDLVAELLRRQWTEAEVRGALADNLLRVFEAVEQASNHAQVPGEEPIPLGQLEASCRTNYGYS

With CC1(C)CC1C(=O)N/C(=C\CCCC(=O)O)C(=O)O (racemic) [Compound 64] the Ki ([1]; pH 7.1, 37° C., concentration giving 50% inhibition, calculated from multiple assays, GDP substrate) was 48 nM.

With NCC(=O)NC(=Cc1ccccc1)C(=O)O [GDP, glycyldehydrophenylalanine] the “maximal velocity of hydrolysis by renal dipeptidase” value (renal dipeptidase) was “much higher maximal velocity of hydrolysis”.

For CCCCC/C=C(\NC(=O)[C@H]1CC1(C)C)C(=O)O [dextrorotatory isomer, (+) Z-2-(2,2-dimethylcyclopropanecarboxamido)-2-octenoic acid], the “activity of resolved isomers” value ([1]; resolved racemic octenoic acid, test not specified) was “The activity resides in the dextrorotatory isomer”.
